Laboratory results published in patent US20250277029A1, “CANNABINOID TYPE 1 RECEPTOR BINDING PROTEINS AND USES THEREOF” (AMGEN INC., priority 2022, published 2025).

System: JAX WT DIO
Assay: Rimonabant 3 mg/kg QD in JAX WT DIO mice (12 weeks HFD): body weight, fat mass, liver weight
Type: in vivo, mouse
Settings: JAX WT DIO (12 weeks HFD), 3 mg/kg (6.5 μmol/kg, QD)

Question: What does the source list for Cc1c(C(=O)NN2CCCCC2)nn(-c2ccc(Cl)cc2Cl)c1-c1ccc(Cl)cc1 [Rimonabant, rimonabant]?
Answer: Fat Mass % Change (Day 15): −23%; Liver Weight % Change (Day) (Day 17): −7%; BW % Change (day 17): −12.9%
